The values below come from patent US5807745A, “Method of inhibiting PADGEM-mediated or ELAM-1-mediated leukocyte adhesion using an inhibitor comprising a Le^x core component” (New England Medical Center Hospitals, Inc., priority 1995, dated 1998).

Experiment [1] relates to ELAM-mediated binding of HL60 cells to CHO-ELAM cells. The experiment is described as follows: CHO-ELAM adhesion assay with tritiated HL60 cells. The note with it: Homo sapiens, HL-60, done once only, read-out: decrease of ELAM-mediated binding; for inhibition at 250 µM: 0.25 mM; for inhibition at 500 µM: 0.5 mM. It is filed as cell-based. From the text: (§1) Chinese hamster ovary cells (CHO-DUKX) were transfected with cDNA encoding ELAM or PADGEM to make CHO-ELAM and CHO-PADGEM cells. Each of the following cell types, Chinese hamster ovary cells-DUKX (CHO-DUKX), Chinese hamster ovary cells transfected with cDNA for ELAM (CHO-ELAM) and Chinese hamster ovary cells transfected with cDNA for PADGEM (CHO-PADGEM), were separately plated at a density of 6×10^4 cells per milliliter of medium into Costar 48 well culture plates. On the following day, HL60 cells in culture were sedimented by centrifugation and resuspended in medium (RPMI, 10% fetal calf serum) to a density of 5×10^5 cells/ml. Tritiated thymidine (5 μCi per milliliter) was added to the HL60 cell suspension and the cells were grown overnight. The following day the HL60 cells were washed thrice in serum free RPMI and resuspended in a volume of 5 mls of RPMI. After assuring that the free tritium in the cell suspension is no more than 10% of the cell associated tritium, the cell count of the cell suspension was established and the cell density was adjusted to 1×10^6 cells per milliliter.
(§2) To perform the assay medium was aspirated from the CHO cells, CHO-ELAM cells and CHO-PADGEM cells. The wells containing these cells were rinsed with 1 ml of serum free RPMI. HL60 cells were preincubated for 10 minutes with the test sugar at the concentrations indicated. Aliquots of these HL60 cells (100,000 to 300,000 cells) were then added to individual wells containing CHO cells of the various types and the two cell populations incubated together for 30 minutes at room temperature. Unbound HL60 cells were removed by aspiration and the wells were washed thrice with serum free RPMI. The adherent CHO cells and any bound HL60 cells were detached from the surface of the wells with 250 μl of phosphate buffered saline containing 1 mM EDTA. An aliquot of the detached cells (200 μl) was analyzed for tritium content in a β-scintillation counter. The level of nonspecific binding of tritiated HL60 cells was taken as the level of binding seen in the wells containing the CHO-DUKX cells (parent cell line of CHO-PADGEM and CHO-ELAM transfectants). This value was subtracted from the level of tritiated HL60 cells bound in wells containing CHO-ELAM or CHO-PADGEM cells. The decrease in binding induced by the presence of the sugar was determined by comparing the level of binding of HL60 cells in the presence of the sugar to that observed in its absence.
(§3) Additional sugars were tested for inhibition of PADGEM- and ELAM-mediated interactions using the CHO-PADGEM and CHO-ELAM adhesion assay described in Example 2. The following sugars were tested at a single concentration: […]

Experiment [2] concerns PADGEM-mediated binding of HL60 cells to CHO-PADGEM transfectants. The experiment is described as follows: CHO-PADGEM adhesion assay with tritiated HL60 cells. It is filed as cell-based. As to conditions: done once only.
Source text: as §1, §2, §3

Experiment [3] has as its system adherence of activated platelets to neutrophils (PADGEM-mediated). In words: Phase-contrast cell adhesion assay: thrombin-activated platelets with neutrophils. It is filed as cell-based, human. The note with it: LNF isomers; direct cell adhesion assay; FIG. 6. The protocol: Platelets were isolated by gel filtration from fresh anticoagulated blood obtained from normal human donors (Hsu-Lin et al., J. Biol. Chem., 259: 9121-9126 (1984)). Activated platelets were prepared by incubating cells without stirring for 20 minutes at 22° C. with thrombin at a final concentration of 0.25 U/ml. Fresh platelets were used in cell adhesion assays within 30 minutes of preparation.
Neutrophils were prepared by the method of English and Anderson (J. Immunol. Method, 5: 249-252 (1974)). The neutrophil preparations were greater than 95% pure by light microscopy. Monocytes were prepared by washing the mono-nuclear leukocyte fraction twice with human serum-5 mM EDTA and incubating the cells in RPMI 1640--10% fetal calf serum in sterile […] dishes for 2 hours at 37° C. The dishes were washed three times with PBS at 37° C. to remove nonadherent cells. PBS at 0° C. was added, and the cells were incubated at 4° C. for 1 hour. Adherent cells were gently detached with a rubber policeman, washed in PBS, and resuspended in RPMI 1640--1% fetal calf serum. Lymphocytes were obtained by washing the nonadherent cells with PBS and resuspending these cells in RPMI 1640--1% fetal calf serum. The purity of these preparations was established to be greater than 90% by light microscopy using Wright esterase and nonspecific esterase stains.
Twenty microliters of platelet suspension (2×10^8 /ml) was mixed with 20 μl of cell suspension (2×10^6 /ml) and incubated for 20 minutes at 22° C. in a microfuge tube. An aliquot of the cell suspension was then in a Neubauer chamber and evaluated by light microscropy using an Olympus model BH-2 microscope. Three samples from each assay were evaluated by counting 200 cells and scoring the percentage of cells with two or more adherent platelets (Jungi et al., Blood 67: 629-636 (1986)). Antibody inhibition studies were performed by preincubating cells (20 μl; 3×10^6 /ml) with 20 μl of antibody solution for 20 minutes at 22° C. Subsequently, 20 μl of platelet suspension was added, and the mixture was incubated for 20 minutes at 22° C. Samples were analyzed as above.
To identify the PADGEM recognition site on leukocytes that mediates the binding of activated platelets, monoclonal antibodies directed at various antigens on the surface of monocytes and neutrophils were tested for their ability to inhibit the interaction of these cells with activated platelets, using the phase-contrast cell adhesion assay described in Example 2 (FIG. 1 and FIG. 2). The antibodies were raised against various leukocytes and myeloid cell lines and are directed at leukocyte antigens. […] The percentage of cells displaying two or more adherent platelets was determined as described in Example 2.

Experiment [4] relates to binding of HL60 cells to COS/PADGEM cells. In words: COS cell-PADGEM adhesion assay with labelled HL60 cells. It is filed as cell-based, human. As to conditions: for inhibition of binding of radiolabeled HL60 cells to COS/PADGEM cells: 111In activity, FIG. 7; for inhibition of binding of fluorescently labeled HL60 cells to COS/PADGEM cells: scored morphologically in a blind assay. The protocol:
COS cells (1×10^5) were transfected with 40 μg of the resulting PADGEM expression vector by calcium phosphate precipitation. Coverslips (12×12 mm) were added to each culture. After 48 hours of growth in DMEM--10% fetal calf serum, the COS cells were confluent.
HL60 cells (1×10^7), maintained in culture, were washed and resuspended in 0.5 ml of serum-free RPMI 1640. The cells were labeled with 270 μCi of ^111 In oxine (Callow et al., Arch. Surg., 117: 1447-1455 (1982)) and 10 μg of bis-carboxyethyl-carboxyfluorescein (Kolber et al., J. Immunol. Meth., 108: 255-264 (1988)) by incubation at 37° C. for 30 minutes. After washing with RPMI 1640--1% bovine serum albumin, the cells (1×10^6) were incubated with the coverslips containing confluent COS cell transfectants, in the presence or absence of LNF isomers, for 20 minutes at 37° C. The coverslips were washed with RPMI 1640, and duplicate coverslips were assayed for ^111 In activity. Alternatively, samples were evaluated for HL60 cell adherence by fluorescence and phase-contrast microscopy using a Zeiss Axioscope microscope in a blind assay. Inhibition of the binding of COS/PADGEM cells to U937 cells by the antibody 80H5 was performed in experiments identical to the procedure described above.
The results of a COS cell-PADGEM adhesion assay, in which the binding of ^111 In and bis-carboxyethyl-carboxyfluorescein-lableled HL60 cells to COS/PADGEM cells was monitored by assaying ^111 In activity (Example 2), are shown in FIG. 7. […] The inhibitory effect of LNF II was more apparent when the LNF to PADGEM ratio was high. […] It is possible that minor contamination of the LNF II preparation with LNF III can account for the inhibitory activity observed.
The inhibitory effects of LNF I, II, and III on the interaction of HL60 cells and COS/PADGEM was also studied morphologically in a blind assay. In these experiments, the binding of fluorescently labeled HL60 cells to COS/PADGEM cells was scored (Example 2).

A further experiment has as its system PADGEM. The note with it: literature reports; cited from earlier work.

`CC(=O)NC1C(O)CC(OC2C(O)C(CO)OC(OC3C(CO)OC(O)C(O)C3OC3OC(C)C(O)C(O)C3O)C2O)(C(=O)O)OC1C(O)C(O)CO` (stereo not shown) [3'-sialyl-3-fucosyllactose, NeuAcα2-3Galβ1-4[Fucα1-3]Glc]: the inhibition at 250 µM in experiment [1] fell in the range of 50 to 60%. The “inhibition of PADGEM-mediated binding of HL60 cells to CHO-PADGEM transfectants” value (“inhibition … to CHO-PADGEM transfectants” below) in experiment [2] (0.25 mM) is on record as “none of the four sugars tested appreciably inhibited”.

Take `CC(=O)NC1C(O)CC(OC2C(O)C(CO)OC(OC3C(CO)OC(O)C(O)C3O)C2O)(C(=O)O)OC1C(O)C(O)CO` (stereo not shown) [3'-sialyllactose, NeuAcα2-3Galβ1-4Glc]: the inhibition at 500 µM in experiment [1] was at most 10%. In addition, the “inhibition … to CHO-PADGEM transfectants” value in experiment [2] (0.5 mM) is “none of the four sugars tested appreciably inhibited”.

As for `C[C@@H]1O[C@@H](O[C@H]2[C@H](O[C@@H]3O[C@H](CO)[C@H](O)[C@H](O)[C@H]3O)[C@@H](CO)OC(O)[C@@H]2O)[C@@H](O)[C@H](O)[C@@H]1O` (stereo partly shown) [3-fucosyllactose, Galβ1-4[Fucα1-3]Glc], in experiment [1], the inhibition at 250 µM was at most 10%. For the same compound, in experiment [2] (0.25 mM), the “inhibition … to CHO-PADGEM transfectants” value is reported as “none of the four sugars tested appreciably inhibited”.

On to `CC(=O)NC1C(O)CC(OCC2OC(OC3C(CO)OC(O)C(O)C3O)C(O)C(O)C2O)(C(=O)O)OC1C(O)C(O)CO` (stereo not shown) [6'-sialyllactose, NeuAcα2-6Galβ1-4Glc], for which the inhibition at 500 µM in experiment [1] is at most 10%. For the same compound, in experiment [2] (0.5 mM), the “inhibition … to CHO-PADGEM transfectants” value is recorded as “none of the four sugars tested appreciably inhibited”.

Consider `CC(=O)N[C@H]1[C@H](O[C@H]2[C@@H](O)[C@@H](CO)O[C@@H](O[C@H]3[C@H](O)[C@@H](O)C(O)O[C@@H]3CO)[C@@H]2O)O[C@H](CO)[C@@H](O)[C@@H]1O[C@@H]1O[C@H](CO)[C@H](O)[C@H](O)[C@H]1O[C@@H]1O[C@@H](C)[C@@H](O)[C@@H](O)[C@@H]1O` (stereo partly shown) [LNF I, Fucα1-2Galβ1-3GlcNAcβ1-3Galβ1-4Glc], for which, in experiment [3], the “inhibitory activity on adherence of activated platelets to neutrophils” value is “neither LNF I (open squares) nor LNF II (closed circles) had inhibitory activity”. For the same compound, in experiment [4], the “inhibition of binding of radiolabeled HL60 cells to COS/PADGEM cells” value is on record as “did not inhibit” and the “inhibition of binding of fluorescently labeled HL60 cells to COS/PADGEM cells” value is “no inhibitory activity”.

Turning to `CC(=O)N[C@H]1[C@H](O[C@H]2[C@@H](O)[C@@H](CO)O[C@@H](O[C@H]3[C@H](O)[C@@H](O)C(O)O[C@@H]3CO)[C@@H]2O)O[C@H](CO)[C@@H](O[C@@H]2O[C@@H](C)[C@@H](O)[C@@H](O)[C@@H]2O)[C@@H]1O[C@@H]1O[C@H](CO)[C@H](O)[C@H](O)[C@H]1O` (stereo partly shown) [LNF II, Galβ1-3(Fucα1-4)GlcNAcβ1-3Galβ1-4Glc], in experiment [3], the “inhibitory activity on adherence of activated platelets to neutrophils” value is “neither LNF I (open squares) nor LNF II (closed circles) had inhibitory activity”. Moreover, in experiment [4], the “inhibition of binding of radiolabeled HL60 cells to COS/PADGEM cells” value was “only a small inhibitory effect” and the “inhibition of binding of fluorescently labeled HL60 cells to COS/PADGEM cells” value is recorded as “no inhibitory activity”.

With fucoidin, the “inhibition of PADGEM-mediated binding of activated platelets to leukocytes” value in the experiment on PADGEM is “inhibited”.

For the compound heparin, the “inhibition of PADGEM-mediated binding of activated platelets to leukocytes” value in the experiment on PADGEM is on record as “inhibited”.
